Like-named read-outs stand apart in the source and are kept apart here. Where only a bound is given, the exact number is not on record here.

The subject of experiment [1] is HCT116 WT cells. As to the kind of experiment: HCT116 WT cell proliferation / viability (CellTiter-Glo, 6 days). In kind it is cell-based. As to conditions: Homo sapiens, HCT-116, 144 h, read-out: HCT-116 WT IC50. Put shortly: (§1)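 IC50 values derive from sigmoidal dose-response fits, some with Hill slope fixed at −1 and top constrained to 100%, others from 4-parameter logistic models. They reflect CellTiter-Glo viability after 6 days of compound exposure at up to 10 or 50 μM.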
For orientation: ATP-based viability assays read luminescence as a measure of living cells.

For experiment [2], the system named is HCT116 MTAP null cells. Briefly: HCT116 MTAP null cell proliferation / viability (CellTiter-Glo, 6 days). It counts as cell-based. As to conditions: HCT116-MTAP null, 144 h, read-out: HCT-116 MTAP null IC50. The gist of the method:
as §1

[3] abbreviates: HCT116 WT cells, 6 days, CellTiter-Glo.
[4] abbreviates: HCT116 MTAP null cells, 6 days, CellTiter-Glo.

As to `CCN(Cc1ccc(C(F)(F)F)cn1)C(=O)c1ccc2nc(N)c3c(c2c1)COC3(C)C` [Example 933, 4-amino-N-ethyl-3,3-dimethyl-N-((5-(trifluoromethyl)pyridin-2-yl)methyl)-1,3-dihydrofuro[3,4-c]quinoline-8-carboxamide], the IC50 in experiment [1] (setting [3]) was above 10000 nM; in experiment [2] (setting [4]), 560 nM.

For `CC(c1ncccn1)N(Cc1ccc(C2COC2)cc1)C(=O)c1ccc2nc(N)c3c(c2c1)COC3` (racemic) [Example 449, 4-amino-N-(4-(3-oxetanyl)benzyl)-N-((1R)-1-(2-pyrimidinyl)ethyl)-1,3-dihydrofuro[3,4-c]quinoline-8-carboxamide and 4-amino-N-(4-(3-oxetanyl)benzyl)-N-((1S)-1-(2-pyrimidinyl)ethyl)-1,3-dihydrofuro[3,4-c]quinoline-8-carboxamide], the IC50 amounted to 1230 nM in experiment [1] (setting [3]) and 42 nM in experiment [2] (setting [4]).

Take `C[C@H](c1ncccn1)N(Cc1ccc(C(F)(F)F)cn1)C(=O)c1ccc2nc(N)c3ncncc3c2c1` [Example 638, 5-amino-N-((1R)-1-(2-pyrimidinyl)ethyl)-N-((5-(trifluoromethyl)-2-pyridinyl)methyl)pyrimido[4,5-c]quinoline-9-carboxamide]: the results for the IC50 in experiment [1] (setting [3]) and in experiment [2] (setting [4]) were 378 nM and 22 nM, respectively.

`CC(c1ncc(C(F)(F)F)cc1C#N)N(C)C(=O)c1cc2c(cc1F)nc(N)c1cnn(C)c12` (centres unmarked) [Example 936, 4-amino-N-(1-(3-cyano-5-(trifluoromethyl)pyridin-2-yl)ethyl)-7-fluoro-N,1-dimethyl-1H-pyrazolo[4,3-c]quinoline-8-carboxamide]: the IC50 in experiment [1] (setting [3]) worked out at 18700 nM; in experiment [2] (setting [4]) it was 721 nM.

On to `Nc1nc2ccc(C(=O)N(Cc3ccc(Br)cn3)C3CC3)cc2c2c1COC2` [Example 455, 4-amino-N-((5-bromo-2-pyridinyl)methyl)-N-cyclopropyl-1,3-dihydrofuro[3,4-c]quinoline-8-carboxamide], for which the results for the IC50 in experiment [1] (setting [3]) and in experiment [2] (setting [4]) were 4780 nM and 148 nM, respectively.

With `CCOc1ccc(CN(CC2CC2)C(=O)c2cc3c4c(c(N)nc3cc2F)COC4)nn1` [Example 752, 4-amino-N-(cyclopropylmethyl)-N-((6-ethoxy-3-pyridazinyl)methyl)-7-fluoro-1,3-dihydrofuro[3,4-c]quinoline-8-carboxamide], the IC50 in experiment [1] (setting [3]) was determined as 771 nM; in experiment [2] (setting [4]) it was 33 nM.

For the compound `COC(=O)N1CCN(c2ccc(CN(C)C(=O)c3ccc4nc(N)c5c(c4c3)COC5)nc2)CC1` [Example 413, methyl 4-(6-((((4-amino-1,3-dihydrofuro[3,4-c]quinolin-8-yl)carbonyl)(methyl)amino)methyl)-3-pyridinyl)-1-piperazinecarboxylate], the IC50 in experiment [1] (setting [3]) was determined as 20300 nM; in experiment [2] (setting [4]) it was 870 nM.

In the case of `CO[C@@H]1COCC[C@H]1N(Cc1ccc(C(F)(F)F)cn1)C(=O)c1ccc2nc(N)c3c(c2c1)COC3C` (stereo partly drawn) [Example 902, 4-amino-N-((3S,4R)-3-methoxytetrahydro-2H-pyran-4-yl)-3-methyl-N-((5-(trifluoromethyl)pyridin-2-yl)methyl)-1,3-dihydrofuro[3,4-c]quinoline-8-carboxamide], the IC50 in experiment [1] (setting [3]) is 330 nM; in experiment [2] (setting [4]) it was 34 nM.

On to `CC1OCc2c1c(N)nc1ccc(C(=O)N(Cc3ccc(C#N)cn3)CC3(C#N)CC3)cc21` (centres unmarked) [Example 913, 4-amino-N-((1-cyanocyclopropyl)methyl)-N-((5-cyanopyridin-2-yl)methyl)-3-methyl-1,3-dihydrofuro[3,4-c]quinoline-8-carboxamide], for which the IC50 in experiment [1] (setting [3]) is 1700 nM; in experiment [2] (setting [4]) it was 49 nM.

With `C[C@H]1OCc2c1c(N)nc1ccc(C(=O)N(C)[C@@H](C)c3ccc(C(F)(F)F)cn3)cc21` (single isomer, unassigned) [Example 852], the figures for the IC50 in experiment [1] (setting [3]) and in experiment [2] (setting [4]) were above 50000 nM and 3160 nM, respectively.

As to `CCN(Cc1ccc(C(F)(F)F)nn1)C(=O)c1ccc2nc(N)c3cnn(C)c3c2c1` [Example 548, 4-amino-N-ethyl-1-methyl-N-((6-(trifluoromethyl)-3-pyridazinyl)methyl)-1H-pyrazolo[4,3-c]quinoline-8-carboxamide], the half-inhibitory concentration (IC50) in experiment [1] (setting [3]) came to 6870 nM; in experiment [2] (setting [4]), 78 nM.

As to `CC1OCc2c1c(N)nc1ccc(C(=O)N(Cc3ccc(C(F)(F)F)cn3)Cc3ccnc4[nH]ccc34)cc21` (centres unmarked) [Example 916, N-((1H-pyrrolo[2,3-b]pyridin-4-yl)methyl)-4-amino-3-methyl-N-((5-(trifluoromethyl)pyridin-2-yl)methyl)-1,3-dihydrofuro[3,4-c]quinoline-8-carboxamide], the IC50 was determined as 200 nM in experiment [1] (setting [3]) and 6 nM in experiment [2] (setting [4]).

As to `COC[C@@H](C)N(Cc1ccc(C(F)(F)F)cn1)C(=O)c1ccc2nc(N)c3c(c2c1)COC3` [Example 445, 4-amino-N-((2R)-1-methoxy-2-propanyl)-N-((5-(trifluoromethyl)-2-pyridinyl)methyl)-1,3-dihydrofuro[3,4-c]quinoline-8-carboxamide], the IC50 in experiment [1] (setting [3]) worked out at 153 nM; in experiment [2] (setting [4]) it was 8 nM.

`Nc1nc2cc(F)c(C(=O)N(Cc3ccc(C(F)(F)F)cn3)C3CC3)cc2c2c1cnn2CC(F)(F)F` [Example 570, 4-amino-N-cyclopropyl-7-fluoro-1-(2,2,2-trifluoroethyl)-N-((5-(trifluoromethyl)-2-pyridinyl)methyl)-1H-pyrazolo[4,3-c]quinoline-8-carboxamide]: the IC50 in experiment [1] (setting [3]) was found to be 329 nM; in experiment [2] (setting [4]) it was 757 nM.

On to `Cn1cc(N(Cc2ccc(C(F)(F)F)cn2)C(=O)c2cc3c4c(c(N)nc3cn2)COC4)cn1` [Example 885, 4-amino-N-(1-methyl-1H-pyrazol-4-yl)-N-((5-(trifluoromethyl)-2-pyridinyl)methyl)-1,3-dihydrofuro[3,4-c][1,7]naphthyridine-8-carboxamide], for which the IC50 in experiment [1] (setting [3]) turned out to be 596 nM; in experiment [2] (setting [4]) it was 25 nM.

On to `C[C@H]1OCc2c1c(N)nc1ccc(C(=O)N(Cc3ccc(C(F)(F)F)cn3)C3CCOCC3)cc21` [Example 489, (3R)-4-amino-3-methyl-N-(tetrahydro-2H-pyran-4-yl)-N-((5-(trifluoromethyl)-2-pyridinyl)methyl)-1,3-dihydrofuro[3,4-c]quinoline-8-carboxamide], for which the IC50 in experiment [1] (setting [3]) is 5210 nM; in experiment [2] (setting [4]), 276 nM.

`CCOc1ccc(CN(CC2CC2)C(=O)c2cc3c(cc2F)nc(N)c2c3cnn2C)nn1` [Example 765, 4-amino-N-(cyclopropylmethyl)-N-((6-ethoxy-3-pyridazinyl)methyl)-7-fluoro-3-methyl-3H-pyrazolo[3,4-c]quinoline-8-carboxamide]: the IC50 in experiment [1] (setting [3]) is 1980 nM; in experiment [2] (setting [4]) it was 49 nM.

Take `CC(C)N(Cc1ccc(C(F)(F)F)cn1)C(=O)c1cc2c3c(c(N)nc2cc1F)COC3` [Example 345, 4-amino-7-fluoro-N-(2-propanyl)-N-((5-(trifluoromethyl)-2-pyridinyl)methyl)-1,3-dihydrofuro[3,4-c]quinoline-8-carboxamide]: the values for the IC50 in experiment [1] (setting [3]) and in experiment [2] (setting [4]) were 210 nM and 11 nM, respectively.

With `CN(Cc1ccc(C2CC2)nn1)C(=O)c1cc2c(cc1F)nc(N)c1c2cnn1C` [Example 517, 4-amino-N-((6-cyclopropyl-3-pyridazinyl)methyl)-7-fluoro-N,3-dimethyl-3H-pyrazolo[3,4-c]quinoline-8-carboxamide], the IC50 in experiment [1] (setting [3]) came to 45400 nM; in experiment [2] (setting [4]), 706 nM.

In the case of `CCN(C(=O)c1cc2c3c(c(N)nc2cc1F)COC3)[C@H](C)c1ccc(C(F)(F)F)nn1` [Example 781, 4-amino-N-ethyl-7-fluoro-N-((1R)-1-(6-(trifluoromethyl)-3-pyridazinyl)ethyl)-1,3-dihydrofuro[3,4-c]quinoline-8-carboxamide], the IC50 turned out to be 1310 nM in experiment [1] (setting [3]) and 37 nM in experiment [2] (setting [4]).

As to `CCOc1ccc(CN(C(=O)c2ccc3nc(N)c4c(c3c2)CO[C@@H]4C)[C@H](C)COC)nn1` [Example 374, (3R)-4-amino-N-((6-ethoxy-3-pyridazinyl)methyl)-N-((2R)-1-methoxy-2-propanyl)-3-methyl-1,3-dihydrofuro[3,4-c]quinoline-8-carboxamide], the IC50 in experiment [1] (setting [3]) was 286 nM; in experiment [2] (setting [4]), 14 nM.

On to `CCN(Cc1ccc(C(F)(F)F)cn1)C(=O)c1cc2c(cc1Cl)nc(N)c1cnn(C)c12` [Example 793, 4-amino-7-chloro-N-ethyl-1-methyl-N-((5-(trifluoromethyl)-2-pyridinyl)methyl)-1H-pyrazolo[4,3-c]quinoline-8-carboxamide], for which the IC50 came out at 296 nM in experiment [1] (setting [3]) and 11 nM in experiment [2] (setting [4]).

Consider `CC1(CN(Cc2ccc(C(F)(F)F)cn2)C(=O)c2ccc3nc(N)c4c(c3c2)COC4)CC1` [Example 337, 4-amino-N-((1-methylcyclopropyl)methyl)-N-((5-(trifluoromethyl)-2-pyridinyl)methyl)-1,3-dihydrofuro[3,4-c]quinoline-8-carboxamide], for which the results for the IC50 in experiment [1] (setting [3]) and in experiment [2] (setting [4]) were 714 nM and 33 nM, respectively.

With `C[C@H](c1ncccn1)N(Cc1ccc(C(F)(F)F)cn1)C(=O)c1ccc2nc(N)c3c(c2c1)CCOC3` [Example 887, 5-amino-N-[(1R)-1-pyrimidin-2-ylethyl]-N-[[5-(trifluoromethyl)-2-pyridyl]methyl]-2,4-dihydro-1H-pyrano[3,4-c]quinoline-9-carboxamide], the IC50 was determined as 496 nM in experiment [1] (setting [3]) and 25 nM in experiment [2] (setting [4]).

Turning to `CC(C)CN(Cc1ccc(C(F)(F)F)cn1)C(=O)c1ccc2nc(N)c3c(c2c1)COC3(C)C` [Example 889], the IC50 came out at 4740 nM in experiment [1] and 202 nM in experiment [2].

In general, IC50 refers to the concentration needed to halve the response being measured.

Source of the values: patent US20240101570A1 (AMGEN INC., priority 2020, published 2024).
